This note sets out measurements from patent US20220380341A1, “INHIBITORS OF HIV-1 NEF FOR THE TREATMENT OF HIV DISEASE” (priority 2018, published 2022).

Like-named read-outs stand apart in the source and are kept apart here.

As usually defined, the inhibition is the relative decrease from the control value, in per cent.

One data set has as its system HIV-1NL4-3. Briefly: HIV-1 infectivity assay in TZM-bl reporter cell line (LTR-luciferase, 48 h). The class given is cell-based. Particulars: Human immunodeficiency virus 1, TZM-bl. The gist of the method: (§1)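 Read-out is luciferase from an integrated HIV-1 LTR reporter in TZM-bl cells, 48 h after HIV-1NL4-3 infection in the presence of 1 μM compound. Scale set by DMSO-treated wild-type-infected cells (0%) and Nef-defective virus (100% Nef-dependent effect). Cell Titer Blue measures cytotoxicity without virus.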

Another data set has as its system TZM-bl cell line. The class given is cell-based. Conditions: human, 1 μM. A digest of the protocol: as §1
The next data set deals with HIV-1 NefNL4-3 (Human immunodeficiency virus type 1 group M subtype B, UniProt P03406, A33V/T15A/T51N/V11I). Briefly: Surface plasmon resonance binding to recombinant full-length Nef (NL4-3). Conditions: for Nef NL4-3 Binding, SPR 1:1 or 2-site fitting KD1: 1:1 Langmuir fit where the KD2 cell says '1 to 1 fitting', else 2-site fit; for T, minutes (residence time): 2-step induced fit, T = 1/koff2; for RU30/RUNef (extent of binding): response units at 30 μM relative to Nef immobilized on the SPR chip. Background: Surface plasmon resonance follows binding to a sensor surface in real time, without labels.

Where [1] appears, read: 48 h, Table 1, TZM-bl cells, 1 μM, 48 h, 100% = Nef-defective HIV-1, read-out: HIV-1 Infectivity % Inhibition Norm. to Δ-Nef @ 1 μM.
The mark [2] stands for this setting: 1.0 μM, TZM-bl reporter cell line, Table 4, read-out: % Infectivity Inhibition.
Setting [3] is: KD, M, Table 4, SPR fit 2-step induced fit, KD = koff/kon × koff2/(koff2 + kon2).
The mark [4] stands for this setting: read-out: Nef NL4-3 Binding, SPR 1:1 or 2-site fitting KD2, Table 1, 2-site fit, second component.
Where [5] appears, read: Nef NL4-3 Binding, SPR 2-state fitting KD, Table 1, 2-step induced-fit model.

Turning to `O=C(OCc1ccccc1)N1CCC(c2nn(-c3nc4ccccc4[nH]3)c(O)c2CCc2ccc(F)cc2)CC1` [Compound I-158, benzyl 4-[1-(1H-1,3-benzodiazol-2-yl)-4-[2-(4-fluorophenyl)ethyl]-5-hydroxy-1H-pyrazol-3-yl]piperidine-1-carboxylate], in the data set on HIV-1NL4-3 (setting [1]), the inhibition at 1 µM is 101%. In the data set on TZM-bl cell line, the “Percent Viability @ 1 μM (TZM-bl cells)” value was found to be 92.0%. The “Nef NL4-3 Binding, SPR 1:1 or 2-site fitting KD1” value at HIV-1 NefNL4-3 (Table 1) was “No Interaction”.
Take `O=C(OCc1ccccc1)N1CCCC(c2nn(-c3nc4ccccc4[nH]3)c(O)c2CCc2ccc(F)cc2)C1` (stereo not shown) [Compound I-160, benzyl 3-[1-(1H-1,3-benzodiazol-2-yl)-4-[2-(4-fluorophenyl)ethyl]-5-hydroxy-1H-pyrazol-3-yl]piperidine-1-carboxylate]: the inhibition at 1 µM in the data set on HIV-1NL4-3 (setting [2]) and with HIV-1NL4-3 (setting [1]) was 33.4% in each case. Moreover, the “% Cell Viability” value in the data set on TZM-bl cell line is 93.7%. Moreover, in the data set on TZM-bl cell line, the “Percent Viability @ 1 μM (TZM-bl cells)” value came to 93.7%. The Kd on HIV-1 NefNL4-3 is 0.0063 nM; at HIV-1 NefNL4-3 (setting [3]), 0.00238 nM; at HIV-1 NefNL4-3 (setting [4]), 2620 nM. Besides, the “T, minutes (residence time)” value at HIV-1 NefNL4-3 (Table 4) stood at 7.41E + 06 minutes. Further, the “RU30/RUNef (extent of binding)” value on HIV-1 NefNL4-3 worked out at 1.74E- 02.
Consider `Cc1ccn(CCc2c(-c3ccc(C(F)(F)F)cc3)nn(-c3nc4ccc(Cl)cc4[nH]3)c2O)n1` [Compound I-163, 1-(6-chloro-1H-1,3-benzodiazol-2-yl)-4-[2-(3-methyl-1H-pyrazol-1-yl)ethyl]-3-[4-(trifluoromethyl)phenyl]-1H-pyrazol-5-ol], for which the inhibition at 1 µM in the data set with HIV-1NL4-3 (setting [2]) and with HIV-1NL4-3 (setting [1]) was 0.3% in each case. Further, in the data set on TZM-bl cell line, the “% Cell Viability” value stood at 96.6%. The “Percent Viability @ 1 μM (TZM-bl cells)” value with TZM-bl cell line amounted to 96.6%. Moreover, the Kd at HIV-1 NefNL4-3 is 1010 nM; on HIV-1 NefNL4-3 (setting [3]), 5820 nM; on HIV-1 NefNL4-3 (setting [5]), 5820 nM. Moreover, on HIV-1 NefNL4-3 (Table 4), the “T, minutes (residence time)” value is on record as 1.44E + 01 minutes. Also, the “RU30/RUNef (extent of binding)” value at HIV-1 NefNL4-3 was 4.48E- 03.
For the molecule `O=C(OCc1ccccc1)N1CCC(c2c(-c3ccc(C(F)(F)F)cc3)nn(-c3nc4ccccc4[nH]3)c2O)CC1` [Compound I-164, benzyl 4-[1-(1H-1,3-benzodiazol-2-yl)-5-hydroxy-3-[4-(trifluoromethyl)phenyl]-1H-pyrazol-4-yl]piperidine-1-carboxylate], the inhibition at 1 µM in the data set with HIV-1NL4-3 (setting [1]) stood at 64.9%. Besides, the “Percent Viability @ 1 μM (TZM-bl cells)” value in the data set with TZM-bl cell line worked out at 93.6%. Moreover, the “Nef NL4-3 Binding, SPR 1:1 or 2-site fitting KD1” value at HIV-1 NefNL4-3 (Table 1) is recorded as “No Interaction”.
As for `Oc1c(CCc2ccc(F)cc2)c(-c2ccccc2)nn1-c1nc2cc(Cl)ccc2[nH]1` [Compound I-165, 1-(5-chloro-1H-1,3-benzodiazol-2-yl)-4-[2-(4-fluorophenyl)ethyl]-3-phenyl-1H-pyrazol-5-ol], the inhibition at 1 µM in the data set with HIV-1NL4-3 (setting [2]) and in the data set on HIV-1NL4-3 (setting [1]) was 25.3% in each case. Also, the “% Cell Viability” value in the data set on TZM-bl cell line stood at 89.6%. Further, in the data set with TZM-bl cell line, the “Percent Viability @ 1 μM (TZM-bl cells)” value came to 89.6%. Further, the Kd at HIV-1 NefNL4-3 was found to be 689 nM; at HIV-1 NefNL4-3 (setting [3]), 636 nM; on HIV-1 NefNL4-3 (setting [5]) it was 636 nM. Further, the “T, minutes (residence time)” value at HIV-1 NefNL4-3 (Table 4) was 5.10E + 00 minutes. Further, on HIV-1 NefNL4-3, the “RU30/RUNef (extent of binding)” value turned out to be 4.14E- 02.
Take `CS(=O)(=O)c1ccc(-c2nn(-c3nc4cc(Cl)ccc4[nH]3)c(O)c2CCC2CCOCC2)cc1` [Compound I-168, 1-(5-chloro-1H-1,3-benzodiazol-2-yl)-3-(4-methanesulfonylphenyl)-4-[2-(oxan-4-yl)ethyl]-1H-pyrazol-5-ol]: the inhibition at 1 µM in the data set on HIV-1NL4-3 (setting [2]) and with HIV-1NL4-3 (setting [1]) was 19.2% in each case. Moreover, in the data set on TZM-bl cell line, the “% Cell Viability” value is reported as 97.9%. Further, the “Percent Viability @ 1 μM (TZM-bl cells)” value in the data set with TZM-bl cell line is listed as 97.9%. Besides, the Kd at HIV-1 NefNL4-3 came to 751 nM; at HIV-1 NefNL4-3 (setting [3]) it was 2730 nM; on HIV-1 NefNL4-3 (setting [5]), 2730 nM; on HIV-1 NefNL4-3 (setting [4]), 4970 nM. For the same molecule, on HIV-1 NefNL4-3 (Table 4), the “T, minutes (residence time)” value is reported as 4.96E + 00 minutes. The “RU30/RUNef (extent of binding)” value on HIV-1 NefNL4-3 was determined as 6.97E- 03.
